# Legend:
# Assay in all cases: relative viability (nuclei count vs DMSO), 5 days (fraction); higher = more cells survive
# Lapatinib + Alpelisib = compound: CS(=O)(=O)CCNCc1ccc(-c2ccc3ncnc(Nc4ccc(OCc5cccc(F)c5)c(Cl)c4)c3c2)o1 [Lapatinib] + Cc1nc(NC(=O)N2CCC[C@H]2C(N)=O)sc1-c1ccnc(C(C)(C)C(F)(F)F)c1 [Alpelisib] (partner 2 µM)
# Summary of the method: (§1)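 Five library-drug doses in √10 steps were combined with a fixed anchor-drug dose, or a single drug was given alone, by pin tool to lung cancer cell lines in 1536-well plates the day after seeding. Nuclei were stained and counted after 5 days. Relative viability is the nuclei count in treated wells over that in vehicle wells, taken as the median of duplicate plates.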
# Wnt-C59 + Crizotinib = compound: CC1=NC=CC(=C1)C2=CC=C(C=C2)CC(=O)NC3=CC=C(C=C3)C4=CN=CC=C4 [Wnt-C59] + C[C@@H](Oc1cc(-c2cnn(C3CCNCC3)c2)cnc1N)c1c(Cl)ccc(F)c1Cl [Crizotinib] (partner 1 µM)
# Summary of the method: as §1
# Lapatinib + Palbociclib = compound: CS(=O)(=O)CCNCc1ccc(-c2ccc3ncnc(Nc4ccc(OCc5cccc(F)c5)c(Cl)c4)c3c2)o1 [Lapatinib] + CC(=O)c1c(C)c2cnc(Nc3ccc(N4CCNCC4)cn3)nc2n(C2CCCC2)c1=O [Palbociclib] (partner 0.5 µM)
# Summary of the method: as §1
# Lapatinib + Crizotinib = compound: CS(=O)(=O)CCNCc1ccc(-c2ccc3ncnc(Nc4ccc(OCc5cccc(F)c5)c(Cl)c4)c3c2)o1 [Lapatinib] + C[C@@H](Oc1cc(-c2cnn(C3CCNCC3)c2)cnc1N)c1c(Cl)ccc(F)c1Cl [Crizotinib] (partner 1 µM)
# Summary of the method: as §1
Cell Line,relative viability (Lapatinib + Alpelisib; first compound 0.02 µM),relative viability (Lapatinib + Alpelisib; first compound 0.2 µM),relative viability (Lapatinib + Alpelisib; first compound 0.6325 µM),relative viability (Lapatinib + Alpelisib; first compound 2 µM),relative viability (Wnt-C59 + Crizotinib; first compound 0.001 µM),relative viability (Wnt-C59 + Crizotinib; first compound 0.01 µM),relative viability (Wnt-C59 + Crizotinib; first compound 0.03162 µM),relative viability (Wnt-C59 + Crizotinib; first compound 0.1 µM),relative viability (Lapatinib + Palbociclib; first compound 0.02 µM),relative viability (Lapatinib + Palbociclib; first compound 0.06325 µM),relative viability (Lapatinib + Palbociclib; first compound 0.2 µM),relative viability (Lapatinib + Palbociclib; first compound 0.6325 µM),relative viability (Lapatinib + Palbociclib; first compound 2 µM),relative viability (Lapatinib + Crizotinib; first compound 0.02 µM),relative viability (Lapatinib + Crizotinib; first compound 0.2 µM),relative viability (Lapatinib + Crizotinib; first compound 0.6325 µM),relative viability (Lapatinib + Crizotinib; first compound 2 µM),relative viability (Lapatinib + Alpelisib; first compound 0.06325 µM),relative viability (Lapatinib + Crizotinib; first compound 0.06325 µM)
NCI-H358,0.741,0.574,0.414,0.336,0.608,0.525,0.436,0.625,0.16,0.124,0.13,0.132,0.104,0.577,0.523,0.363,0.26,–,–
COR-L 105,0.872,1.03,0.804,0.294,0.879,0.808,0.853,0.76,0.418,0.387,0.352,0.407,0.338,0.727,0.639,0.58,0.279,0.765,0.635
PC-3 [JPC-3],–,1.02,0.988,0.585,0.979,1.01,1.09,0.965,–,0.589,–,0.546,0.444,–,1.09,0.998,0.656,1.04,0.965
NCI-H1993,0.683,0.721,0.684,0.665,0.932,0.981,0.878,1.9,0.687,–,0.471,0.588,0.433,0.854,0.796,0.737,0.742,–,–
NCI-H1734,–,0.653,0.736,0.657,0.642,0.618,0.773,0.66,–,0.271,0.31,0.332,0.303,–,0.737,0.669,0.663,0.489,0.481
LU99A,0.564,0.527,0.524,0.54,0.577,0.538,0.622,0.531,0.449,0.299,0.385,0.424,0.39,0.591,0.53,0.582,0.597,0.476,0.464
ABC-1,–,1.23,0.88,0.838,1.03,1.21,1.11,0.868,0.71,0.487,–,0.533,0.787,–,1.32,1.22,0.967,1.06,0.928
HCC-44,0.689,0.75,0.873,0.535,0.878,0.78,0.753,0.757,0.995,1.01,0.976,1.05,0.823,0.747,0.837,0.802,0.675,0.621,0.743
NCI-H1915,–,1.08,1.03,1.02,0.771,0.852,1.02,0.912,–,0.517,0.489,0.496,0.522,–,0.887,0.846,0.86,1.05,0.868
CAL-12T,1.05,1.25,1.13,0.417,0.699,0.654,0.89,0.555,0.197,0.304,0.319,0.329,0.137,0.593,0.575,0.57,0.326,1.26,0.59
HARA,0.739,0.593,0.625,0.288,1.04,0.642,1.15,1.06,0.194,0.195,0.202,0.233,0.224,1.04,0.932,0.934,0.447,0.573,1.28
H3255,0.591,0.643,0.635,0.232,0.86,0.959,0.942,0.751,0.334,0.291,0.308,0.291,0.283,0.752,0.888,0.702,0.311,0.506,0.687
NCI-H1792,0.723,0.75,0.666,0.576,0.914,1.02,1.04,1.06,0.618,–,0.614,0.559,0.6,0.92,0.985,0.946,0.918,0.633,0.987
NCI-H2023,0.53,0.528,0.553,0.378,0.701,0.65,0.686,0.594,–,0.266,0.324,0.242,0.264,0.539,0.491,0.633,0.281,0.576,0.419
HCC-78,–,0.305,0.26,0.15,0.343,0.284,0.303,0.339,–,0.453,0.49,0.467,0.506,–,0.315,0.297,0.229,0.277,0.236
HOP-62,–,0.861,1.14,0.856,0.973,0.916,0.974,0.789,–,0.44,0.457,0.451,0.432,–,0.991,0.934,0.948,0.618,0.892
NCI-H1755,0.906,0.915,0.888,0.789,0.899,0.826,0.827,0.839,0.475,0.463,0.423,0.417,0.48,0.851,0.899,0.818,0.809,0.873,0.82
NCI-H1651,0.919,0.897,0.828,0.932,0.856,0.855,0.854,0.864,0.547,0.456,0.483,0.478,0.514,0.907,0.884,0.849,0.904,0.827,0.845

Cell Line,relative viability (Lapatinib + Alpelisib; first compound 0.02 µM),relative viability (Lapatinib + Alpelisib; first compound 0.2 µM),relative viability (Lapatinib + Alpelisib; first compound 0.6325 µM),relative viability (Lapatinib + Alpelisib; first compound 2 µM),relative viability (Wnt-C59 + Crizotinib; first compound 0.001 µM),relative viability (Wnt-C59 + Crizotinib; first compound 0.01 µM),relative viability (Wnt-C59 + Crizotinib; first compound 0.03162 µM),relative viability (Wnt-C59 + Crizotinib; first compound 0.1 µM),relative viability (Lapatinib + Palbociclib; first compound 0.02 µM),relative viability (Lapatinib + Palbociclib; first compound 0.06325 µM),relative viability (Lapatinib + Palbociclib; first compound 0.2 µM),relative viability (Lapatinib + Palbociclib; first compound 0.6325 µM),relative viability (Lapatinib + Palbociclib; first compound 2 µM),relative viability (Lapatinib + Crizotinib; first compound 0.02 µM),relative viability (Lapatinib + Crizotinib; first compound 0.2 µM),relative viability (Lapatinib + Crizotinib; first compound 0.6325 µM),relative viability (Lapatinib + Crizotinib; first compound 2 µM),relative viability (Lapatinib + Alpelisib; first compound 0.06325 µM),relative viability (Lapatinib + Crizotinib; first compound 0.06325 µM)
SK-MES-1,0.698,0.709,0.629,0.33,1.01,0.973,1.07,0.959,0.338,0.384,0.326,0.328,0.299,0.95,1.08,0.806,0.731,–,0.974
NCI-H2085,0.869,0.932,1,0.694,0.929,0.803,0.953,0.823,0.485,0.462,0.474,0.445,0.338,0.824,0.759,0.807,0.616,0.845,0.996
EKVX,0.869,0.845,0.575,0.212,1.06,1.09,0.879,0.874,–,0.337,0.265,0.22,0.145,0.868,0.89,0.647,0.214,0.675,0.68
NCI-H1437,1,1.02,0.864,0.866,0.996,0.867,0.988,0.89,0.281,0.297,0.305,0.322,0.294,0.85,0.94,0.914,1,0.869,0.919
BEN,0.961,1.19,0.909,0.853,0.897,0.84,1.02,0.923,0.455,0.469,0.472,0.432,0.468,0.826,1.06,0.828,0.747,0.904,0.672
NCI-H1666,0.744,0.671,0.485,0.244,0.989,1.05,0.902,1.1,0.63,0.632,0.674,0.65,0.633,0.787,0.847,0.842,0.357,0.835,1.05
LCLC-103H,–,0.924,0.848,0.92,1.08,0.977,1,1.02,0.445,0.486,0.478,0.533,0.441,–,0.934,0.963,0.931,0.882,0.93
NCI-H2009,1.12,1.16,1.16,1.12,0.941,1.11,1.06,1.03,0.192,0.213,0.177,0.253,0.233,1.09,1.05,1.03,0.959,1.16,1.05
LOU-NH91,0.661,0.533,0.508,0.472,0.732,0.65,0.738,0.766,0.542,0.525,0.508,0.494,0.57,0.697,0.599,0.547,0.534,0.557,0.626
NCI-H441,–,0.68,0.617,0.799,0.731,0.906,0.805,0.615,0.222,–,0.176,0.236,0.185,0.681,0.803,0.689,0.721,0.65,0.861
NCI-H661,0.646,0.468,0.45,0.36,1,1.05,0.981,0.948,0.374,0.382,0.325,0.356,0.3,0.979,1.29,1.05,0.762,0.637,1.15
NCI-H1355,–,0.734,0.762,0.416,1.01,1.05,1.06,0.966,0.411,0.29,0.402,0.361,0.268,–,1.02,1.02,0.606,0.621,0.854
HCC-366,–,0.381,0.446,0.242,0.45,0.541,0.605,0.472,–,0.334,0.339,0.356,0.323,–,0.713,0.564,0.372,0.282,0.418
LK-2,–,0.938,1.13,1.01,0.228,0.238,0.212,0.259,0.634,–,0.832,–,1.01,–,0.253,0.217,0.245,–,–
COR-L23,0.694,0.871,0.752,0.688,0.653,0.567,0.637,0.67,0.248,0.298,0.342,0.297,0.279,0.71,0.697,0.602,0.581,0.602,0.676
PC-14,0.823,0.883,0.864,0.783,0.999,0.857,0.818,0.848,0.497,0.526,0.451,0.373,0.0812,0.815,0.946,0.898,0.826,0.915,0.9
NCI-H2087,1.12,1.21,1.01,0.931,0.737,0.884,0.792,0.778,0.238,0.161,0.177,0.251,0.246,0.876,1.1,0.692,0.766,1.06,0.88
HCC-15,–,0.843,0.857,0.797,0.891,0.82,0.919,0.85,–,0.68,0.734,0.652,0.584,–,0.808,0.835,0.704,0.799,0.786

# — the supplement of paper PMC10307832
